From US12378178B2, “Oleic acid derivatives as treatments for Friedreich ataxia and inhibitors of ferroptosis” (THE TRUSTEES OF THE UNIVERSITY OF PENNSYLVANIA, priority 2019, dated 2025)
“Also recorded” adds a separate entry of the source.

Legend:
[1] = tested on: mouse fibroblast I154F cell lines; assay: Rescue of viability of murine I154F fibroblasts treated with FAC+BSO; settings: for Relative to Oleic Acid: 1 = oleic acid, 0.5 = no rescue; for activity in FAC+BSO assay: following FAC+BSO treatment, concentration not given
[2] = tested on: human FRDA fibroblast line GM4078; assay: Survival of human FRDA fibroblast line GM4078 treated with FAC and BSO; assay type: cell-based; settings: for Relative to Oleic Acid (change in survival compared to cells treated with 40 μM oleic acid) / toxicity / activity in dose response: FAC and BSO; for toxicity: compound 40 μM; for activity in dose response: lower concentrations down to 5 μM; for activity: trifluoromethyl ketone and alcohol analogs
Experimental: To test the efficacy of the above compounds, they were tested at least at two different concentrations using human FRDA fibroblast line GM4078 treated with FAC and BSO and the change in survival compared to cells treated with 40 μM oleic acid was measured Table 2 has the results of the compounds tested at 40 μM.

PGC1-α = PGC1-α expression in human FRDA fibroblasts GM3816; assay type: cell-based; settings: compound 16 μM; after 96 h
Experimental: Oleic acid, as well as other fatty acids of different length and degree of saturation, binds and activates the peroxisome proliferator-activated receptor gamma (PPAR-γ), a key regulator of glucose and lipid metabolism, which up-regulates PGC1-α, among other targets. Pioglitazone, a PPAR-γ agonist is a thiazolidinedione used to treat type-2 diabetes. […] Human FRDA fibroblasts GM3816 were treated with 10 μM pioglitazone and increased PGC1-α expression was measured starting at 48 h. The expression doubled at 96 h, a time frame sufficient for PGC1-α to have an effect in a typical FAC+BSO experiment, whereas 16 μM oleic acid increased PGC1-α expression only 1.4 fold after 96 h.

[3] = tested on: human FRDA fibroblasts 3816; assay: Rescue of human FRDA fibroblasts 3816 treated with erastin; assay type: cell-based; settings: erastin 5 μM; for survival: 48 h (erastin alone 32%)
Experimental: Addition of O[…] at 5 μM was sufficient to increase survival to 50% (1.5 fold) and at 10 μM and 20 μM survival went up to 80 and 84% (2.5 and 2.6 fold) respectively (FIG. 2B).

[4] = tested on: human FRDA fibroblasts 3816; assay: as above; assay type: cell-based; settings: for survival: 10 μM erastin for 24 h (85% cell death)
[5] = tested on: murine fibroblast I154F cells; assay: Rescue from erastin-induced ferroptosis, murine I154F fibroblast model; assay type: cell-based; settings: 5 μM erastin for 48 h (erastin alone 44%)
[6] = tested on: murine fibroblast I154F cells; assay: Lipid peroxidation in murine fibroblast I154F cells; assay type: cell-based
Experimental: The basal level of lipid peroxides was tested in the murine fibroblast I154F cells compared to the parental line 2F1 and a detectable higher level of lipid peroxides was found in the cells containing a missense frataxin (FIG. 3A).

[7] = tested on: immortalized human fibroblasts 3665-T cells; assay: Survival of immortalized human fibroblasts 3665-T treated with FAC and BSO; assay type: cell-based; settings: for survival: FAC and BSO (95% cell death)
Excerpt: Stereospecific activity of the two enantiomers was confirmed using the immortalized human fibroblasts 3665-T cells, a more severe model of FRDA. […] (FIG. 2A).

lipoxygenases (Lox) = assay: In vitro lipoxygenase activity assay; assay type: biochemical; settings: compound at 1 nM and 10 nM; solubility problems precluded higher concentrations
Experimental: Oleic acid has been reported to inhibit soybean lipoxygenase, as well as human 15-lipoxygenase, by binding an allosteric site. […] Whether O[…] was inhibiting lipoxygenase activity was tested using an in vitro assay.

[8] = tested on: immortalized myoblast cell line transfected with a frataxin siRNA; assay: Lipid peroxidation in immortalized myoblast cell line with frataxin siRNA knock-down; assay type: cell-based; settings: compound 5 μM every 48 h post transfection
Experimental: Knocking-down frataxin in human fibroblasts results in increased lipid peroxidation, which could be easily measured when the cells were also treated with the ferroptosis inducer RSL-3. To test whether OA200R would be efficacious in the knock-down system, an immortalized myoblast cell line was transfected with a frataxin siRNA or a scrambled siRNA control. A 65% protein loss was achieved over 4 days and a statistically significant increase of lipid peroxidation (1.4 fold) compared to the cells transfected with a scrambled control.

[9] = tested on: healthy human fibroblasts with frataxin knockdown; settings: earlier work referred to in the text; cited from earlier work

## CCCCCCCC/C=C\CCCCCCCCCCCC(=O)O [Erucic add]
[1]; compound 40 μM
  efficacy in FAC+BSO assay: comparable to oleic acid
[1]; tested at 40 μM, <0.5 toxic
  Relative to Oleic Acid: 0.93 ± 0.07

## CCCCCC/C=C\CCCCCCCCC(=O)C(F)(F)F [HA-210]
[2]; tested at 40 μM
  Relative to Oleic Acid (change in survival compared to cells treated with 40 μM oleic acid): 0.35 ± 0.02

## CCCCCCCCCCCCCC(=O)O [Myristic Acid]
[1]; tested at 40 μM, <0.5 toxic
  Relative to Oleic Acid: 0.11 ± 0.02

## CCCCCCCCC1OC(C)(C)OC1CCCCCCCC(=O)O (stereo not shown) [OA-90]
[2]; tested at 40 μM
  Relative to Oleic Acid (change in survival compared to cells treated with 40 μM oleic acid): 0.05 ± 0.02

## CCCCCCCC/C=C\CCCCCCCC(=O)OC [Oleic Acid OMe]
[1]; tested at 40 μM, <0.5 toxic
  Relative to Oleic Acid: 0.95 ± 0.12

## CCCCC/C=C\C/C=C\CCCCCCCC(=O)O [linoleic acid]
[1]; compound 16 μM, FAC+BSO (alone 40% of control cells)
  cell viability: 30 % of control cells

## CCCCCCCC/C=C\CCCCCCCC(=O)C(F)(F)F [OA-210, (Z)-1,1,1-trifluorononadec-10-en-2-one]
[2]; 10 μM printed beside the value
  Relative to Oleic Acid (change in survival compared to cells treated with 40 μM oleic acid): 0.52 ± 0.13
[2]
  toxicity: slightly toxic
  activity in dose response: active

## CCCCC/C=C\C/C=C\C/C=C\CCCCC(=O)O [γ-linolenic Acid]
[1]
  activity in FAC+BSO assay: increased cell death
[1]; tested at 40 μM, <0.5 toxic
  Relative to Oleic Acid: 0.16 ± 0.02

## CCCCCCCCCCC/C=C\CCCCC(=O)O [Petrosenilic Acid]
[1]; compound 40 μM
  efficacy in FAC+BSO assay: comparable to oleic acid
[1]; tested at 40 μM, <0.5 toxic
  Relative to Oleic Acid: 0.74 ± 0.04

## CCCCCCCCCCCCCCCCCC(=O)O [Stearic Acid]
[1]; compound 16 μM, FAC+BSO
  effect on cell survival: no effect
[1]; tested at 40 μM, <0.5 toxic
  Relative to Oleic Acid: 0.50 ± 0.06

## CCCCCCCCC1OC1CCCCCCCC(=O)O (stereo not shown) [OA-50]
[2]; tested at 40 μM
  Relative to Oleic Acid (change in survival compared to cells treated with 40 μM oleic acid): 0.15 ± 0.02

## CCCCCCCC/C=C\CCCCCCCC(=O)OCC [Oleic Acid OEt]
[1]; tested at 40 μM, <0.5 toxic
  Relative to Oleic Acid: 0.77 ± 0.18

## CCCCCC/C=C\CCCCCCCCCC(=O)O [Cis-Vaccenic Acid]
[1]; compound 40 μM
  efficacy in FAC+BSO assay: comparable to oleic acid
[1]; tested at 40 μM, <0.5 toxic
  Relative to Oleic Acid: 1.00 ± 0.08

## CCCCCCCC/C=C\CCCCCCCC(=O)O [Oleic Acid]
PGC1-α
  increase of PGC1-α expression: 1.4 fold
[3]; compound 20 μM, 48 h
  increase of survival: 1.5 fold
[4]; compound 40 μM, 10 μM erastin for 24 h
  rescue of cell viability: did not rescue cell viability
[1]; compound 16 μM, FAC+BSO
  effect on cell survival: doubled cell survival
[1]; compound 40 μM
  efficacy in FAC+BSO assay: doubled survival
[1]; read-out: EC50 in the FAC+BSO in mouse fibroblasts assay, FAC+BSO
  EC50: 23 µM
[1]; tested at 40 μM, <0.5 toxic
  Relative to Oleic Acid: 1.03 ± 0.04
[5]; compound 5 μM
  cell survival: 49%
[5]; compound 10 μM
  cell survival: 55%
[5]; compound 20 μM
  cell survival: 65%

## CCCCCCCC/C=C/CCCCCCCC(=O)O [Elaidic Acid]
[1]; compound 40 μM
  efficacy in FAC+BSO assay: slightly toxic
[1]; compound 160 μM
  efficacy in FAC+BSO assay: somehow effective
[1]; tested at 40 μM, <0.5 toxic
  Relative to Oleic Acid: 0.30 ± 0.08

## CCCCCCCCCCCCCCCC(=O)O [Palmitic Acid]
[1]; tested at 40 μM, <0.5 toxic
  Relative to Oleic Acid: 0.18 ± 0.07

## CCCCCCCCC(O)C(O)CCCCCCCC(=O)O (stereo not shown) [OA-81]
[2]; tested at 40 μM
  Relative to Oleic Acid (change in survival compared to cells treated with 40 μM oleic acid): 0.14 ± 0.03

## CCCCCC/C=C\CCCCCCCCC(O)C(F)(F)F (racemic) [[rac]-HA-200]
[2]; tested at 40 μM
  Relative to Oleic Acid (change in survival compared to cells treated with 40 μM oleic acid): 0.56 ± 0.03

## CCCCCC/C=C\CCCCCCCC(=O)O [Palmitoleic Acid]
[1]; 20 μM
  Relative to Oleic Acid: 0.73 ± 0.04
[1]; compound 40 μM
  efficacy in FAC+BSO assay: comparable to oleic acid
[1]; tested at 40 μM, <0.5 toxic
  Relative to Oleic Acid: 0.77 ± 0.03

## CCCCCCCC/C=C\CCCCCCC[C@@H](O)C(F)(F)F [OA200R, (R,Z)-1,1,1-trifluorononadec-10-en-2-ol]
[6]
  concentration at which reduction of lipid peroxidation reached statistical significance: 5 µM
[6]; basal lipid peroxides
  lipid peroxidation: reduced lipid peroxidation in a dose-dependent manner
[3]; compound 5 μM, 48 h
  increase of survival: 1.5 fold
[3]; compound 5 μM
  survival: 50%
[3]; compound 10 μM, 48 h
  increase of survival: 2.5 fold
[3]; compound 10 μM
  survival: 80%
[3]; compound 20 μM, 48 h
  increase of survival: 2.6 fold
[3]; compound 20 μM
  survival: 84%
[7]; compound 10 μM
  survival: 25%
[7]; compound 20 μM
  survival: 77%
[7]; compound 40 μM
  survival: 95%
Lipoxygenases (Lox)
  Lox enzymatic activity: did not affect Lox enzymatic activity; also recorded: does not inhibit
[8]
  decreased lipid peroxidation: 20%
[4]; compound 5 μM
  survival: 48%
[4]; compound 10 μM
  survival: 87%
[4]; compound 20 μM
  survival: 88%
[2]; rescue of cell viability, assay not given
  potency of (R)-enantiomer relative to (S)-enantiomer: seven-fold
[2]; assay not given
  activity: activity resides in the (R) enantiomer

## CCCCCCCCCCCC(=O)O [Lauric Acid]
[1]
  activity in FAC+BSO assay: inactive
[1]; tested at 40 μM, <0.5 toxic
  Relative to Oleic Acid: 0.47 ± 0.12

## CCCCCCCCC1OC2(CCCCC2)OC1CCCCCCCC(=O)O (stereo not shown) [OA-95]
[2]; tested at 40 μM
  Relative to Oleic Acid (change in survival compared to cells treated with 40 μM oleic acid): 0.24 ± 0.04

## CCCCCCCCCC/C=C\CCCCCCCC(=O)O [Gadoleic acid]
[1]; compound 40 μM
  efficacy in FAC+BSO assay: comparable to oleic acid
[1]; tested at 40 μM, <0.5 toxic
  Relative to Oleic Acid: 0.77 ± 0.16

## CCCCCCCC/C=C\CCCCCCCC(N)=O [Oleic Acid NH2]
[1]; tested at 40 μM, <0.5 toxic
  Relative to Oleic Acid: 0.79 ± 0.13

## CCCCCCCCC=CCCCCCCCC(=O)NO [OA310]
[1]; 10 μM
  Relative to Oleic Acid: 1.04 ± 0.04

## CCOC(=O)c1ccc(NC2CCCCC2)c(NCc2ccccc2)c1 [SRS11-92]
[9]
  cell death associated with frataxin knockdown: decreased the cell death

## Heptadecenoic acid
[1]; 20 μM
  Relative to Oleic Acid: 0.7 ± 0.05
[1]; tested at 40 μM, <0.5 toxic
  Relative to Oleic Acid: 0.83 ± 0.05

## CCCCCCCC/C=C\CCCCCCCC(O)C(F)(F)F (racemic) [[rac]-OA-200, (Z)-1,1,1-trifluorononadec-10-en-2-ol]
[2]; 10 μM printed beside the value
  Relative to Oleic Acid (change in survival compared to cells treated with 40 μM oleic acid): 0.67 ± 0.17
[2]; cells treated with FAC and BSO, or with erastin
  potency in rescuing cell viability compared with oleic acid: significantly more potent than oleic acid
[2]
  toxicity: slightly toxic
  activity in dose response: active

## CCCCCCCCCC(=O)O [Capric Acid]
[1]
  activity in FAC+BSO assay: inactive
[1]; tested at 40 μM, <0.5 toxic
  Relative to Oleic Acid: 0.49 ± 0.09

## CCCCCCCC/C=C\CCCCCCC[C@H](O)C(F)(F)F [S-isomer, (S,Z)-1,1,1-trifluorononadec-10-en-2-ol]
[3]; compound between 20 and 5 μM, 48 h
  activity: no activity
[7]; compound 5 μM, FAC and BSO
  efficacy: inefficacious
[7]; compound 20 μM
  survival: 10%
[7]; compound 40 μM
  survival: 22%
[4]; any concentration, 10 μM erastin for 24 h
  activity: inactive
[2]; assay not given
  activity: inactive
